Literature values in US20160243040A1, “Pharmaceutical Composition with Antiinflammatory Agents and Production Process” (LABORATORIO RAAM DE SAHUAYO, S.A. DE C.V., priority 2013, published 2016).

Columns and labels:
[1] = relative potency, cortisol = 1
[2] = relative potency, cortisol = 1; remark: listed apart in the source
[3] = class by biological half-life
[4] = applies only to oral or intravenous use

dose excreted in urine (mainly as aceclofenac glucuronide and diclofenac, and its hydroxy metabolites)	tmax in presence of food (oral, presence of food)	tmax without food (oral, without food)	elimination half-life (single dose of 100 mg)	SMILES	Anti-inflammatory potency [1]	Potency to retain Na+ [2]	Duration of action [3]	Dose equivalents [4]
–	–	–	–	C[C@H]1C[C@@H]2[C@H]([C@@H](O)C[C@@]3(C)[C@H]2CC[C@]3(O)C(=O)CO)[C@@]2(C)C=CC(=O)C=C12 [6α-methyl prednisolone]	5	0.5	I (I, intermediate (Biological half-life of 12-36 h))	4 mg
–	–	–	–	C[C@H]1C[C@H]2[C@@H]3CCC4=CC(=O)C=C[C@]4(C)[C@@]3(F)[C@@H](O)C[C@]2(C)[C@@]1(O)C(=O)CO [Betamethasone]	–	–	P (P, prolonged (Biological half-life of 36 to 72 h))	–
–	–	–	–	C[C@]12CCC(=O)C=C1CC[C@@H]1[C@@H]2[C@@H](O)C[C@@]2(C)[C@H]1CC[C@]2(O)C(=O)CO [Cortisol]	1	1	B (B, short (Biological half-life of 8-12 h))	20 mg
–	–	–	–	C[C@]12CCC(=O)C=C1CC[C@@H]1[C@@H]2C(=O)C[C@@]2(C)[C@H]1CC[C@]2(O)C(=O)CO [Cortisone]	0.8	0.8	B (B, short (Biological half-life of 8-12 h))	25 mg
–	–	–	–	C[C@@H]1C[C@H]2[C@@H]3CCC4=CC(=O)C=C[C@]4(C)[C@@]3(F)[C@@H](O)C[C@]2(C)[C@@]1(O)C(=O)CO [Dexamethasone]	–	–	P (P, prolonged (Biological half-life of 36 to 72 h))	–
–	–	–	–	C[C@]12CCC(=O)C=C1CC[C@H]1[C@@H]3CC[C@](O)(C(=O)CO)[C@@]3(C)C[C@H](O)[C@@]12F [Fludrocortisone]	–	–	I (I, intermediate (Biological half-life of 12-36 h))	–
–	–	–	–	C[C@]12C=CC(=O)C=C1CC[C@@H]1[C@@H]2[C@@H](O)C[C@@]2(C)[C@H]1CC[C@]2(O)C(=O)CO [Prednisolone]	4	0.8	I (I, intermediate (Biological half-life of 12-36 h))	5 mg
–	–	–	–	C[C@]12C=CC(=O)C=C1CC[C@H]1[C@@H]3C[C@@H](O)[C@](O)(C(=O)CO)[C@@]3(C)C[C@H](O)[C@@]12F [Tiamcinolone]	5	0	I (I, intermediate (Biological half-life of 12-36 h))	4 mg
Approximately 70%	3.5 h	2.0 h	6.2 h	O=C(O)COC(=O)Cc1ccccc1Nc1c(Cl)cccc1Cl [aceclofenac, Aceclofenac]	–	–	–	–
